Assay results reported in publication PMC12463534, “Exploring the Anticancer Properties of 4-Phenylthiazole-Based Ru(II) and Os(II) Metallacycles Featuring 1-Methylimidazole as N-Donor Functionality” (Bioinorganic Chemistry and Applications, 2025).
Like-named read-outs stand apart in the source and are kept apart here.

Experiments:
[1] = tested on: A549 lung adenocarcinoma cells; parameters: method as in PMID 38426897; settings: MTT assay, exposure time 96 h; ref [5]; read-out: 50% inhibitory concentration A549 (chlorido complexes, reference) (converted); cited from earlier work
[2] = tested on: SW480 colon adenocarcinoma cells; parameters: method as in PMID 38426897; settings: MTT assay, exposure time 96 h; ref [5]; read-out: 50% inhibitory concentration SW480 (chlorido complexes, reference) (converted); cited from earlier work
[3] = tested on: CH1/PA-1 ovarian teratocarcinoma cells; parameters: method as in PMID 38426897; settings: MTT assay, exposure time 96 h; ref [5]; read-out: 50% inhibitory concentration CH1 (chlorido complexes, reference) (converted); cited from earlier work
SW480 cancer cells = assay: Cellular accumulation (ICP-MS) in SW480 cells; settings: 50 μM, 0.5% DMF in MEM, SW480, exposure time 2 h
Procedure: (§1) As the coordinated p-cym and leaving groups are present in all synthesized complexes, we focused on the differently substituted 4-phenylthiazoles for estimated changes in lipophilicity.
Cellular accumulation of the compounds was studied based on a method described previously with modifications. 1.8 × 10^5 SW480 cells per well were seeded in aliquots of 1 mL of complete MEM (see above) into 12-well plates (CytoOne, tissue culture treated, Starlab) and incubated at 37°C for 24 h. Then, cells were exposed for 2 h at 37°C to 50 μM solutions of the test compounds (containing 0.5% DMF) in fresh 0.5 mL of complete MEM upon exchange of the medium. Afterward, cells were washed three times with 1 mL PBS per well, lysed with 0.4 mL sub-boiled HNO3 per well for 1 h at room temperature, and 0.3 mL of each sample was diluted with 7.7 mL Milli-Q water. Adsorption/desorption controls were prepared in the same manner in cell-free wells. Ruthenium content was quantified by ICP-MS using an ICP-quadrupole MS Agilent 7800 instrument (Agilent Technologies, Waldbronn, Germany) as described previously.

Solubility in 1% DMF/PBS = assay: Solubility in 1% DMF/PBS
Source text: Solubility is an important factor for the application of metallodrugs. DMF was used as solubilizer to allow comparison to the respective chlorido complexes where the usage of DMSO would lead to stable DMSO adducts.
as §1

[4] = tested on: A549 lung adenocarcinoma cells; assay: MTT assay, inhibition of cancer cell growth, A549; settings: read-out: 50% inhibitory concentration A549, exposure time 96 h
Procedure: (§2) CH1/PA-1 ovarian teratocarcinoma cells (CH1, RRID: CVCL_4992, provided by L. R. Kelland, CRC Center for Cancer Therapeutics, Institute of Cancer Research, Sutton, UK; confirmed by STR profiling as PA-1 ovarian teratocarcinoma cells at Multiplexion, Heidelberg, Germany), SW480 colon adenocarcinoma (RRID: CVCL_0546), and A549 lung adenocarcinoma cells (NCI-H2618, RRID: CVCL_A549; both cell lines were obtained from the American Type Culture Collection (ATCC), Manassas, VA, USA) were grown as adherent cultures in 75-cm^2 culture flasks (Starlab, Hamburg, Germany) by using minimal essential medium (MEM) supplemented with 1 mM sodium pyruvate, 4 mM L-glutamine, 1% (v/v) nonessential amino acids from 100-fold stock (all purchased from Sigma-Aldrich), and 10% heat-inactivated fetal bovine serum (Serana, Pessin, Germany).
(§3) The 3-(4,5-dimethylthiazol-2-yl)-2,5-diphenyl-2H tetrazolium bromide (MTT, Acros Organics, Geel, Belgium) assay was used to detect the cytotoxicity of the compounds after 96-h incubation. For this purpose, cells were harvested from culture flasks by trypsinization, seeded in 100-μL aliquots into 96-well microculture plates (Starlab, UK) in densities of 1 × 10^3 (CH1/PA-1), 2 × 10^3 (SW480), and 3 × 10^3 (A549) cells per well and incubated for 24 h prior to exposure to the test compounds. Stock solutions of test compounds were prepared in DMF, which were then diluted in MEM (not to exceed a final content of 0.5% v/v of organic solvent in the test plates), and serial dilutions were added in aliquots of 100 μL per well. […] After incubation for 4 h, the medium/MTT mixtures were removed, and the produced formazan crystals were dissolved in 150 μL DMSO per well. Optical densities at 550 nm were measured spectrophotometrically with a ELx808 Absorbance Microplate Reader (Bio-Tek, Winooski, VT, USA) by using a reference wavelength of 690 nm to correct for unspecific absorption.

[5] = tested on: SW480 colon adenocarcinoma cells; assay: MTT assay, inhibition of cancer cell growth, SW480; settings: read-out: 50% inhibitory concentration SW480, exposure time 96 h
Procedure: as §2, §3

[6] = tested on: CH1/PA-1 ovarian teratocarcinoma cells; assay: MTT assay, inhibition of cancer cell growth, CH1/PA-1; settings: read-out: 50% inhibitory concentration CH1, exposure time 96 h
Procedure: as §2, §3

[7] = tested on: G4 forming sequences (h-Telo, bcl2, hTERT, Kit1, Kit2) and dsDNA; assay: FRET melting assay, G-quadruplex / B-DNA interaction; assay type: binding, human; settings: 60 mM potassium cacodylate pH 7.4, 2 h incubation
Procedure: G4s are DNA secondary motifs that play crucial roles in cancer development. […] The complexes were incubated with different G4 forming sequences: one derived from human telomere-forming (h-Telo) and four corresponding to promoter regions of oncogenes, namely, bcl2, hTERT, Kit1, and Kit2. For comparison, a self-complementary sequence called dsDNA was used to represent B-DNA (Table S2).
FRET experiments were conducted using an Applied Biosystems QuantStudio 6 PCR cycler in a 96-well format equipped with a FAM (6-carboxyfluorescein) filter. Oligonucleotide stock solutions, labelled with FAM and TAMRA (6-carboxytetramethylrhodamine) probes, were diluted to the desired concentration in a 60-mM potassium cacodylate buffer (pH 7.4). To fold the oligonucleotides into their B-DNA or G4 topologies, the solutions were heated to 95°C for 5 min and then allowed to cool slowly to room temperature overnight. The final concentration of the oligonucleotides was 0.2 μM, with a total volume of 30 μL in each well. Metal complexes were dissolved in DMF to prepare 2 mM stock solutions and further diluted with the buffer, where DMF concentration never exceeded 0.05%. Mixtures of oligonucleotides and metal compounds were left at room temperature for 2 h. Data were collected twice, each time in duplicate, over a temperature range of 25°C–95°C, with a ramp of 1°C every 30 s. FAM emission data were normalized from 0 to 1 to compare different datasets. After data normalization, we extrapolated the T1/2 values, i.e., the temperature at which normalized FAM emission is 0.5. The DNA concentration is expressed in strands.

SW480 cells = assay: DCFH-DA assay, cellular ROS levels; assay type: cell-based, human; settings: for Effect on intracellular ROS levels: 2 h, concentration dependent
Procedure: For this approach, SW480 cells were subjected to the 2′,7′-dichlorofluorescin-diacetate (DCFH-DA) assay.
SW480 colon adenocarcinoma cells were trypsinized for 5 min in a humidified incubator at 37°C and under a 5% CO2 atmosphere. Supplemented MEM was added to stop trypsinization, and cells were centrifuged for 3 min at 1200 rpm (Heraeus Megafuge 1.0R). After cell counting, SW480 cells were seeded in 100-μL aliquots in densities of 2.5 × 10^4 cells/well into 96-well clear flat-bottom microplates (CytoOne, TC-treated, from Starlab). After incubation for 24 h, cells were washed with 200 μL of Hanks' balanced salt solution (HBSS; Sigma-Aldrich; supplemented with 1% heat-inactivated FCS). […] After washing cells with 200 μL of supplemented HBSS, serially diluted test compounds in phenol-red-free Opti-MEM (Gibco), supplemented with 1% heat-inactivated FCS, were added in 200-μl triplicates and tert-butyl hydroperoxide (TBHP) was applied as positive control. […] Blank-corrected values were calculated relative to negative controls (treated with drug-free supplemented Opti-MEM) from three independent experiments.

[8] = tested on: HCT116 colorectal cancer cell line (2D); assay: Resazurin assay, HCT116 2D (monolayer) culture; settings: read-out: IC50 2D, resazurin assay, 96 h exposure
Procedure: (§4) Both models were investigated by the fluorimetric resazurin assay after 96-h exposure.
(§5) HCT116 colorectal carcinoma cells (RRID:CVCL_0291 from ATCC) were cultivated in McCoy's 5A medium, supplemented with 10% heat-inactivated fetal bovine serum and 4 mM L-glutamine.
(§6) For 2D experiments, HCT116 cells were harvested from culture flasks by trypsinization, seeded in 100-μL aliquots into 96-well microculture plates (CytoOne, TC-treated, from Starlab) in densities of 2 × 10^3 cells per well, and incubated for 24 h prior to exposure to the test compounds. […] Stock solutions of test compounds were prepared in DMF, which were then diluted in McCoy's 5A-supplemented medium (not to exceed a final content of 0.5% v/v of organic solvent in the test plates), and serial dilutions were added in aliquots of 100 μL per well. […] After incubation for 4 h, fluorescence was measured with a microplate reader (Bio-Tek, SynergyHT) at a wavelength of 530 nm, additionally using a reference wavelength of 620 nm.

[9] = tested on: HCT116 multicellular tumor spheroids (3D); assay: Resazurin assay, HCT116 3D multicellular tumor spheroids; settings: read-out: IC50 3D; HCT116 3D spheroids, resazurin assay, 96 h exposure
Procedure: as §4, §5, §6

## Cc1ccc(C(C)C)cc1.Fc1ccc(-c2cscn2)[c]([Ru][Cl])c1 [Compound 1b]
[1]
  IC50: 16 µM
[2]
  IC50: 8.6 µM
[3]
  IC50: 3.4 µM

## COc1ccc(-c2cscn2)[c]([Ru][Cl])c1.Cc1ccc(C(C)C)cc1 [Compound 1e]
[1]
  IC50: 27 µM
[2]
  IC50: 17 µM
[3]
  IC50: 7.3 µM

## Cc1ccc(C(C)C)cc1.[Cl][Os][c]1ccccc1-c1cscn1 [Compound 2a]
[1]
  IC50: 17 µM
[2]
  IC50: 9.3 µM
[3]
  IC50: 3 µM

## Cc1ccc(C(C)C)cc1.Fc1ccc(-c2cscn2)[c]([Os][Cl])c1 [Compound 2b]
[1]
  IC50: 10 µM
[2]
  IC50: 7.1 µM
[3]
  IC50: 2 µM

## CS(=O)(=O)c1ccc(-c2cscn2)[c]([Os][Cl])c1.Cc1ccc(C(C)C)cc1 [Compound 2c]
[1]
  IC50: 10 µM
[2]
  IC50: 4.4 µM
[3]
  IC50: 0.83 µM

## Cc1ccc(-c2cscn2)[c]([Os][Cl])c1.Cc1ccc(C(C)C)cc1 [Compound 2d]
[1]
  IC50: 17 µM
[2]
  IC50: 9.3 µM
[3]
  IC50: 3.7 µM

## COc1ccc(-c2cscn2)[c]([Os][Cl])c1.Cc1ccc(C(C)C)cc1 [Compound 2e]
[1]
  IC50: 14 µM
[2]
  IC50: 7.1 µM
[3]
  IC50: 2.2 µM

## Cc1ccc(C(C)C)cc1.Cn1cc[n+]([Ru-]2[c]3cc(F)ccc3-c3csc[n+]32)c1.O=[N+]([O-])[O-] [Compound 3b, [((3-κN)-1-Methylimidazole)(4-(4-fluorophenyl)thiazolato-κN,κC2′)(η^6-p-cymene)ruthenium(II)] Nitrate]
SW480 cancer cells
  Cellular accumulation, fg Ru/cell: 470 ± 71 fg Ru/cell
Solubility in 1% DMF/PBS
  Solubility: 8.82 mM
[4]
  IC50: 20 ± 3 µM
[5]
  IC50: 7.9 ± 1.5 µM
[6]
  IC50: 2.8 ± 0.2 µM

## Cc1ccc(C(C)C)cc1.Cc1ccc2[c](c1)[Ru-]([n+]1ccn(C)c1)[n+]1cscc1-2.O=[N+]([O-])[O-] [Compound 3d, [((3-κN)-1-Methylimidazole)(4-(4-methylphenyl)thiazolato-κN,κC2′)(η^6-p-cymene)ruthenium(II)] Nitrate]
SW480 cancer cells
  Cellular accumulation, fg Ru/cell: 477 ± 47 fg Ru/cell
Solubility in 1% DMF/PBS
  Solubility: 8.92 mM
[7]
  Stabilization of oligonucleotides (G4s or B-DNA): No stabilization
[4]
  IC50: 7.2 ± 1 µM
[5]
  IC50: 3.8 ± 0.3 µM
[6]
  IC50: 1.61 ± 0.04 µM

## COc1ccc2[c](c1)[Ru-]([n+]1ccn(C)c1)[n+]1cscc1-2.Cc1ccc(C(C)C)cc1.O=[N+]([O-])[O-] [Compound 3e, [((3-κN)-1-Methylimidazole)(4-(4-methoxyphenyl)thiazolato-κN,κC2′)(η^6-p-cymene)ruthenium(II)] Nitrate]
SW480 cancer cells
  Cellular accumulation, fg Ru/cell: 246 ± 47 fg Ru/cell
Solubility in 1% DMF/PBS
  Solubility: 15.6 mM
[4]
  IC50: 14 ± 1 µM
[5]
  IC50: 5.5 ± 2.2 µM
[6]
  IC50: 1.8 ± 0.3 µM

## Cc1ccc(C(C)C)cc1.Cn1cc[n+]([Os-]2[c]3ccccc3-c3csc[n+]32)c1.O=[N+]([O-])[O-] [Compound 4a, [((3-κN)-1-Methylimidazole)(4-phenylthiazolato-κN,κC2′)(η^6-p-cymene)osmium(II)] Nitrate]
SW480 cells
  Effect on intracellular ROS levels: initially lowers ROS levels
[8]
  IC50: 9.6 ± 1.2 µM
[4]
  IC50: 12 ± 1 µM
[5]
  IC50: 5.9 ± 1.9 µM
[6]
  IC50: 2.3 ± 0.2 µM
[9]
  IC50: 9.4 ± 4.6 µM

## Cc1ccc(C(C)C)cc1.Cn1cc[n+]([Os-]2[c]3cc(F)ccc3-c3csc[n+]32)c1.O=[N+]([O-])O [Compound 4b, [((3-κN)-1-Methylimidazole)(4-(4-fluorophenyl)thiazolato-κN,κC2′)(η^6-p-cymene)osmium(II)] Nitrate]
[4]
  IC50: 20 ± 2 µM
[5]
  IC50: 7.4 ± 2.3 µM
[6]
  IC50: 2.7 ± 0.2 µM

## Cc1ccc(C(C)C)cc1.Cn1cc[n+]([Os-]2[c]3cc(S(C)(=O)=O)ccc3-c3csc[n+]32)c1.O=[N+]([O-])[O-] [Compound 4c, [((3-κN)-1-Methylimidazole)(4-(4-(methylsulfonyl)phenyl)thiazolato-κN,κC2′)(η^6-p-cymene)osmium(II)] Nitrate]
SW480 cells
  Effect on intracellular ROS levels: initially lowers ROS levels
[8]
  IC50: > 200 µM
[4]
  IC50: > 200 µM
[5]
  IC50: > 200 µM
[6]
  IC50: > 200 µM
[9]
  IC50: 344 ± 19 µM

## Cc1ccc(C(C)C)cc1.Cc1ccc2[c](c1)[Os-]([n+]1ccn(C)c1)[n+]1cscc1-2.O=[N+]([O-])O [Compound 4d, [((3-κN)-1-Methylimidazole)(4-(4-methylphenyl)thiazolato-κN,κC2′)(η^6-p-cymene)osmium(II)] Nitrate]
[4]
  IC50: 7.1 ± 0.6 µM
[5]
  IC50: 3.4 ± 0.9 µM
[6]
  IC50: 1.2 ± 0.2 µM

## COc1ccc2[c](c1)[Os-]([n+]1ccn(C)c1)[n+]1cscc1-2.Cc1ccc(C(C)C)cc1.O=[N+]([O-])O [Compound 4e, [((3-κN)-1-Methylimidazole)(4-(4-methoxyphenyl)thiazolato-κN,κC2′)(η^6-p-cymene)osmium(II)] Nitrate]
[4]
  IC50: 24 ± 1 µM
[5]
  IC50: 8.1 ± 2.6 µM
[6]
  IC50: 2.1 ± 0.5 µM

## CC(C)(C)OO [positive control, tert-butyl hydroperoxide, reference compound]
SW480 cells; positive control
  Elevation of ROS levels vs negative control: more than 3 fold
